The nature of series [1]: Oral bioavailability in human. The class given is ADME, organism-based. The conditions noted are these: in vivo.
The nature of series [2]: Half life in human. The class given is ADME.

Regarding `C[C@H]1Oc2cc(cnc2N)-c2c(nn(C)c2C#N)CN(C)C(=O)c2ccc(F)cc21` [LORLATINIB], in series [1], the bioavailability is 81%. The half-life in series [2] is approximately 25 h.

Broadly, the bioavailability is the share of a dose that reaches the circulation, judged against a reference dose that is usually intravenous. Low values mean poor availability, high ones good availability. For orientation: half-life means the time in which the quantity being followed falls by half. Lower therefore signals fast loss.

(Values after ChEMBL document CHEMBL5506033, “Brain-Penetrant Macrocycles: Design Considerations, Future Prospects, and Call for Papers” (J Med Chem, 2024).)
